The values that follow come from patent publication US20250388575A1, “HETEROBIFUNCTIONAL COMPOUNDS AND METHODS OF TREATING DISEASE” (Halda Therapeutics OpCo, Inc., priority 2022, published 2025).

Read-outs that look alike come from different tables or passages of the source. Some results are limits rather than exact numbers.

For assay [1], the target named is androgen receptor (Homo sapiens, UniProt P10275). The assay can be described thus: Assay for binding affinity to androgen receptor ([3H]methyltrienolone radioligand, cell cytosol). As to conditions: binding to the androgen receptor, 1 nM [3H]methyltrienolone, 24 hr at 4° C. As for the experimental part:
Fractions of cell cytosol (106 cell/point) were incubated for 24 hr at 4° C. with 1 nM [^3H]methyltrienolone in the absence or presence of the test compound in a buffer containing 25 mM Hepes-Tris (pH 7.4), 1 mM EDTA, 10 mM Na2MoO4, 2 mM DTT, 5 µM triamcinolone acetonide, and 10% glycerol. Nonspecific binding was determined in the presence of 1 μM testosterone. Following incubation, the samples were filtered rapidly under vacuum through glass fiber filters (GF/B, Packard) presoaked with 0.3% PEI and rinsed several times with ice-cold 50 mM Tris-HCl using a 96-sample cell harvester (Unifilter, Packard). The filters were dried then counted for radioactivity in a scintillation counter (Topcount, Packard) using a scintillation cocktail (Microscint 0, Packard). The results are expressed as a percent inhibition of the control radioligand specific binding. The standard reference compound is testosterone, which is tested in each experiment at several concentrations to obtain a competition curve from which its IC50 is calculated.

Assay [2] concerns VCaP cells. Nature of the assay: Cellular growth inhibition assay for VCaP cells, CellTiter-Glo. The assay is classed as cell-based, human. To be noted: VCaP cells, 72 hours, CellTiter-Glo, read-out: GI50. A digest of the protocol: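 GI50 values come from four-parameter curve fits of luminescence data normalized to a zero baseline. Compound, in medium with 0.5% DMSO, was added one day after plating and left for 72 h before CellTiter-Glo 2.0 addition.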
For orientation: Cellular ATP, detected with luciferase, serves as a proxy for viable cell number.

Assay [3] deals with T-Rex 293 cell line SC3 cells having increased expression of androgen receptor protein. The assay can be described thus: Cellular growth inhibition, T-Rex 293 SC3 cells with increased androgen receptor expression (doxycycline), CellTiter-Glo. The assay is classed as cell-based. To be noted: T-Rex 293 SC3 cells with increased androgen receptor expression (exposed to 10 ng/mL doxycycline), 72 hours, CellTiter-Glo; read-out: GI50. The essentials:
(§1)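 SC3, a T-Rex 293 clone with doxycycline-inducible wild-type androgen receptor, was seeded in phenol red-free DMEM with 10% charcoal-dextran FBS, with or without 10 ng/mL doxycycline. Compound added at 24 h (0.5% DMSO) for 72 h at 37° C. CellTiter-Glo 2.0 luminescence; GI50 from four-parameter fit.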

The test system of assay [4] is T-Rex 293 cell line SC3 cells lacking increased expression of androgen receptor protein. Nature of the assay: Cellular growth inhibition, T-Rex 293 SC3 cells lacking increased androgen receptor expression (no doxycycline), CellTiter-Glo. The assay is classed as cell-based. As to conditions: T-Rex 293 SC3 cells lacking increased androgen receptor expression (not exposed to doxycycline), 72 hours, CellTiter-Glo; read-out: GI50. A digest of the protocol: as §1

For assay [5], the target named is progesterone receptor (Homo sapiens, UniProt P06401). Nature of the assay: PR Human Progesterone NHR Binding (Agonist Radioligand) Assay, [3H]progesterone, T47D cytosol. To be noted: 0.5 nM [3H]progesterone, T47D cytosolic fractions, 1 hour at 4° C., legend words it as Kd. As for the experimental part:
Compounds were tested using the PR Human Progesterone NHR Binding (Agonist Radioligand) Assay, Cerep at Eurofins Discovery using a modified version of the protocol from Sarup et al. (Cancer Res 1988; 48:5071-5078). Briefly, cytosolic fractions of T47D cells were incubated with 0.5 nM [^3H]progesterone for 1 hour at 4° C. in the absence or presence of the test compound. Nonspecific binding was determined in the presence of 1 μM promegestone. Reactions were subjected to scintillation counting. Results are expressed as a percent inhibition of the control radioligand specific binding.

Assay [6] concerns T47D cells. The assay can be described thus: Cellular growth inhibition assay for T47D cells, CellTiter-Glo. It counts as cell-based, human. To be noted: 72 hours treatment, CellTiter-Glo 2.0. A digest of the protocol: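 Luminescence from CellTiter-Glo 2.0 after 72 h of compound exposure gives the viability signal. Cells grew in insulin-supplemented (0.2 units/mL) DMEM with 10% FBS and were treated one day after seeding at 0.5% DMSO. GI50 values come from four-parameter nonlinear regression.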

Chain of androgen receptor (P10275 whole entry, looked up): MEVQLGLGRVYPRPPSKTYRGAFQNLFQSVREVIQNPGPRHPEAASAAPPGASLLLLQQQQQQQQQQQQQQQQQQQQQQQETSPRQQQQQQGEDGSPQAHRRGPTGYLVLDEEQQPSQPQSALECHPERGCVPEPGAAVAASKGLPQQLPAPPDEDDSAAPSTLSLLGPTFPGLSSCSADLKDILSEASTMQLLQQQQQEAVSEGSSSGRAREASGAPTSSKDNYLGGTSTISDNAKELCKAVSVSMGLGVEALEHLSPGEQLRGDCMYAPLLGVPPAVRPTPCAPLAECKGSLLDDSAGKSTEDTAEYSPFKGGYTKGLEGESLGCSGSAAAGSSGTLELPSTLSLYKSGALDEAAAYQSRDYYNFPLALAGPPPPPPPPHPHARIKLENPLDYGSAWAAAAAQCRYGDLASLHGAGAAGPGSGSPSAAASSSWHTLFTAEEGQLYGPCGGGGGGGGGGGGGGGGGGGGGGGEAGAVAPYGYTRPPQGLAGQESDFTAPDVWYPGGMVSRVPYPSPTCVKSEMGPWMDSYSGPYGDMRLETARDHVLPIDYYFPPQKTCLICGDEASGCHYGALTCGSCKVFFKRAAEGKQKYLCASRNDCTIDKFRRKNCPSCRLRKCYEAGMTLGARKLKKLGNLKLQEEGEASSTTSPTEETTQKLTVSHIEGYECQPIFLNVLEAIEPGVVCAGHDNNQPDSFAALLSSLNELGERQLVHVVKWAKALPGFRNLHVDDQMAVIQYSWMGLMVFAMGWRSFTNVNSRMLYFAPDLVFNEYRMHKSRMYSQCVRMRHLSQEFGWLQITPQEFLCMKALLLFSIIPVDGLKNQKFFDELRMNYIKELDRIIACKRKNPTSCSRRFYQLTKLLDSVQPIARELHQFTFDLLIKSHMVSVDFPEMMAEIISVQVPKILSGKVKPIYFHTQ
Chain of progesterone receptor (P06401 whole entry, looked up): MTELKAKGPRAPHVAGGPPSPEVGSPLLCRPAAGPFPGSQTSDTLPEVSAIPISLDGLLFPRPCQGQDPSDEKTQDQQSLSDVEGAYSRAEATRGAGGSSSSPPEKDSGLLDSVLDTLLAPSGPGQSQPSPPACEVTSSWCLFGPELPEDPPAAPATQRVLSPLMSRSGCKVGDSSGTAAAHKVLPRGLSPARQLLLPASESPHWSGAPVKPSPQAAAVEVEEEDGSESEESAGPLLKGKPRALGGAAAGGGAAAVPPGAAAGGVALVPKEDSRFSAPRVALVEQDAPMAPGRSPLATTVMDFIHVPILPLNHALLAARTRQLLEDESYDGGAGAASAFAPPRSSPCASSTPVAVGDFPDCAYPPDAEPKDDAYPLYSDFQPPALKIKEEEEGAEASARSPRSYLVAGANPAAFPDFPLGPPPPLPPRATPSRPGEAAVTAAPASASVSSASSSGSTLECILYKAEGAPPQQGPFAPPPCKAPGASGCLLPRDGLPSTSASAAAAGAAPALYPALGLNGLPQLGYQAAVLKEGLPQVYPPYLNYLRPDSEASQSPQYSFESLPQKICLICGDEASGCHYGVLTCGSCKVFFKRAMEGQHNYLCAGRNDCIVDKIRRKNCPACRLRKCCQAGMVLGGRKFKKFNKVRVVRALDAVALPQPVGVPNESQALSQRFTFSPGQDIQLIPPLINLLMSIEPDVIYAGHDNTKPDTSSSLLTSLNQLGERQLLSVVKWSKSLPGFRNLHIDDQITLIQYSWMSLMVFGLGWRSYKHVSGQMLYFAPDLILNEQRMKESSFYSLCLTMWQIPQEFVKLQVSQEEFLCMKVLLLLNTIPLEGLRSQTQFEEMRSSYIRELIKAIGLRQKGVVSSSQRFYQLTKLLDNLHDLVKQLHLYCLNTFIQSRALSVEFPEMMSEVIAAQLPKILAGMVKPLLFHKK

The Kd is the free concentration of one partner at which half of the binding sites on the other are occupied at equilibrium, for simple one-to-one binding. A high value points to lower affinity. A word on the GI50: it is the concentration that inhibits growth by half. Turning to `CCS(=O)(=O)Nc1ccc(Oc2cccc(OCCOC3CCN(c4ccc(C(=O)N[C@H]5CC[C@H](Oc6ccc(C#N)c(Cl)c6)CC5)cc4)CC3)c2)c(-c2cn(C)c(=O)c3[nH]ccc23)c1` [I-6, N-[4-(3-chloro-4-cyano-phenoxy)cyclohexyl]-4-[4-[2-[3-[4-(ethylsulfonylamino)-2-(6-methyl-7-oxo-1H-pyrrolo[2,3-c]pyridin-4-yl)phenoxy]phenoxy]ethoxy]-1-piperidyl]benzamide], the Kd in assay [1] is 500 to 2500 nM. Also, the GI50 in assay [2] (Homo sapiens), in assay [3] and in assay [4] was below 500 nM each time.

In the case of `CCS(=O)(=O)Nc1ccc(Oc2cccc(OCCOC3CCN(c4ccc(C(=O)N[C@H]5CC[C@H](Oc6ccc(C#N)c(Cl)c6)CC5)cn4)CC3)c2)c(-c2cn(C)c(=O)c3[nH]ccc23)c1` [I-7, N-[4-(3-chloro-4-cyano-phenoxy)cyclohexyl]-6-[4-[2-[3-[4-(ethylsulfonylamino)-2-(6-methyl-7-oxo-1H-pyrrolo[2,3-c]pyridin-4-yl)phenoxy]phenoxy]ethoxy]-1-piperidyl]pyridine-3-carboxamide], in assay [1], the Kd fell in the range of 500 to 2500 nM. Also, the GI50 in assay [2] (Homo sapiens), in assay [3] and in assay [4] was below 500 nM each time.

As for `CCS(=O)(=O)Nc1ccc(Oc2cccc(OCCOC3CCN(c4cnc(C(=O)N[C@H]5CC[C@H](Oc6ccc(C#N)c(Cl)c6)CC5)cn4)CC3)c2)c(-c2cn(C)c(=O)c3[nH]ccc23)c1` [I-8, N-[4-(3-chloro-4-cyano-phenoxy)cyclohexyl]-5-[4-[2-[3-[4-(ethylsulfonylamino)-2-(6-methyl-7-oxo-1H-pyrrolo[2,3-c]pyridin-4-yl)phenoxy]phenoxy]ethoxy]-1-piperidyl]pyrazine-2-carboxamide], the Kd in assay [1] fell in the range of 500 to 2500 nM. Moreover, the GI50 in assay [2] (Homo sapiens), in assay [3] and in assay [4] was below 500 nM throughout.

`CCS(=O)(=O)Nc1ccc(Oc2cccc(OCCOC3CCN(c4ccc(C(=O)N[C@H]5CC[C@H](Oc6ccc(C#N)c(Cl)c6)CC5)nc4)CC3)c2)c(-c2cn(C)c(=O)c3[nH]ccc23)c1` [I-9, N-[4-(3-chloro-4-cyano-phenoxy)cyclohexyl]-5-[4-[2-[3-[4-(ethylsulfonylamino)-2-(6-methyl-7-oxo-1H-pyrrolo[2,3-c]pyridin-4-yl)phenoxy]phenoxy]ethoxy]-1-piperidyl]pyridine-2-carboxamide]: the Kd in assay [1] is 500 to 2500 nM. Also, the GI50 in assay [2] (Homo sapiens), in assay [3] and in assay [4] was below 500 nM each time.

The compound `CCS(=O)(=O)Nc1ccc(Oc2cccc(OCCOC3CCN(c4cnc(C(=O)N[C@H]5CC[C@H](Oc6ccc(C#N)c(Cl)c6)CC5)nc4)CC3)c2)c(-c2cn(C)c(=O)c3[nH]ccc23)c1` [I-10, N-[4-(3-chloro-4-cyano-phenoxy)cyclohexyl]-5-[4-[2-[3-[4-(ethylsulfonylamino)-2-(6-methyl-7-oxo-1H-pyrrolo[2,3-c]pyridin-4-yl)phenoxy]phenoxy]ethoxy]-1-piperidyl]pyrimidine-2-carboxamide] registered a Kd in assay [1] of 50 to 500 nM. The values for the GI50 in assay [2] (Homo sapiens), in assay [3] and in assay [4] were below 500 nM, below 500 nM and above 3000 nM, respectively.

As usually defined, the Ki is a measure of affinity in units of concentration, obtained from inhibition or displacement. Consider `CCS(=O)(=O)Cc1ccc(Oc2cccc(OCCOC3CCN(c4cnc(C(=O)N[C@H]5CC[C@H](Oc6ccc(C#N)c(Cl)c6)CC5)cn4)CC3)c2F)c(-c2cn(C)c(=O)c3[nH]ccc23)c1` [I-28], for which the dissociation constant (Kd) in assay [1] was in the range of 50 to 500 nM. Further, the GI50 in assay [2] (Homo sapiens), in assay [3] and in assay [4] was below 500 nM in each case. The compound further displayed a Ki in assay [5] of 500 to 2500 nM.

`Cn1cc(-c2cc(C(C)(C)O)ccc2Oc2ccc(C3CN(c4ccc(C(=O)N[C@H]5CC[C@H](Oc6ccc(C#N)c(Cl)c6)CC5)nn4)C3)cc2)c2cc[nH]c2c1=O` [I-104]: the GI50 was below 500 nM in assay [6], below 500 nM in assay [2], below 500 nM in assay [3] and 500 to 1500 nM in assay [4]. The Kd in assay [1] was below 50 nM.

With `Cn1cc(-c2cc(C(C)(C)O)ccc2Oc2ccc(CCC3CCN(c4cnc(C(=O)N[C@H]5CC[C@H](Oc6ccc(C#N)c(Cl)c6)CC5)cn4)CC3)cc2)c2cc[nH]c2c1=O` [I-119], the GI50 in assay [6], in assay [2], in assay [3] and in assay [4] was below 500 nM each time. Further, in assay [1], the Kd lay in the range of 500 to 2500 nM.
